Results from ChEMBL document CHEMBL1127922, “Synthesis and pharmacological evaluation of vinyl sulfone based anticancer agents” (Bioorg Med Chem Lett, 1994).

Tests used:
SK-MEL-5 = assay: In vitro cytotoxicity in human tumor melanoma SK-MEL5c ell lines; format: functional
HT-29 = assay: In vitro cytotoxicity in human tumor colon adenocarcinoma HT-29 cell lines; format: functional
A549 = assay: In vitro cytotoxicity in human tumor lung carcinoma A-549 cell lines; format: functional
Malme-3M = assay: In vitro cytotoxicity in human tumor melanoma MALME-3M cell lines; format: functional
MCF7 = assay: In vitro cytotoxicity in human tumor breast carcinoma MCF-7 cell lines; format: functional
[1] = Total number of toxic deaths of mice to the total number of mice tested was determined at a dose of 33 mg/kg; 0/8; format: ADME, organism-based; parameters: dose 33 mg/kg; settings: mouse, in vivo
[2] = In vitro toxicity against ras transformed N/4.2-NRK cell lines was determined; settings: rat, ras transformed N/4.2-NRK cells; read-out: LC50 (the source's name)
Mus musculus [3] = assay: In vivo inhibitory activity against HT-29 colon cells at maximally tolerated dose(MTD) of 100 mg/kg in mice; format: functional
[4] = Ratio of LC50(NRKE) to LC50(K/1-NRK) expressed as differential induces(DI) was determined; format: functional
[5] = Total number of toxic deaths of mice to the total number of mice tested was determined at a dose of 100 mg/kg; 1/8; format: ADME, organism-based; parameters: dose 100 mg/kg; settings: mouse, in vivo
[6] = (§1) Ratio of LC50(NRKE) to LC50(H/1.2-NRK) expressed as differential induces(DI) was determined; format: functional
[7] = Ratio of LC50(NRKE) to LC50(3LL) expressed as differential induces(DI) was determined; format: functional
[8] = In vitro toxicity against ras transformed H/1.2-NRK cell lines was determined; settings: rat, ras transformed H/1.2-NRK cells; read-out: LC50 (the source's name)
Mus musculus [9] = assay: In vivo inhibitory activity against HT-29 colon cells at maximally tolerated dose(MTD) of 33 mg/kg in mice; format: functional
[10] = (§2) Ratio of LC50(NRKE) to LC50(N/4.2-NRK ) expressed as differential induces(DI) was determined; format: functional
[11] = In vitro toxicity against ras transformed 3LL cell lines was determined; format: cell-based; settings: ras transformed 3LL cells; read-out: LC50 (the source's name)
[12] = In vitro toxicity against ras transformed K/1-NRK cell lines was determined; settings: rat, ras transformed K/1-NRK cells; read-out: LC50 (the source's name)
[13] = In vitro toxicity against ras transformed NRKE cell lines was determined; format: cell-based; settings: rat, NRKE cells; read-out: LC50 (the source's name)
Mus musculus [14] = assay: In vivo inhibitory activity against HT-29 colon cells at maximally tolerated dose(MTD) of 3 mg/kg in mice; format: functional
Mus musculus [15] = assay: In vivo inhibitory activity against HT-29 colon cells at maximally tolerated dose(MTD) of 10 mg/kg in mice; format: functional
[16] = Total number of toxic deaths of mice to the total number of mice tested was determined at a dose of 10 mg/kg; 0/8; format: ADME, organism-based; parameters: dose 10 mg/kg; settings: mouse, in vivo
[17] = Total number of toxic deaths of mice to the total number of mice tested was determined at a dose of 3 mg/kg; 0/8; format: ADME, organism-based; parameters: dose 3 mg/kg; settings: mouse, in vivo
[18] = Total number of toxic deaths of mice to the total number of mice tested was determined at a dose of 11 mg/kg; 0/8; format: ADME, organism-based; parameters: dose 11 mg/kg; settings: mouse, in vivo
[19] = as §1; format: ADME; settings: rat, NRKE cells and H/1.2-NRK cells
Mus musculus [20] = assay: In vivo inhibitory activity against HT-29 colon cells at maximally tolerated dose(MTD) of 11 mg/kg in mice; format: functional
[21] = as §2; format: ADME; settings: rat, NRKE cells and N/4.2-NRK cells

Row | Structure (SMILES) | ED50 (SK-MEL-5) [M l-1] | ED50 (A549) [M l-1] | ED50 (Malme-3M) | ED50 (MCF7) [M l-1] | CC50 [2] [nM] | CC50 [8] [nM] | CC50 [11] [nM] | CC50 [12] [nM] | CC50 [13] [nM] | also measured
1 | CC(C)(C)C1CCC(O)C(N)C1 (stereo not given) | 0.00045 | 0.00016 | > 100000 nM | 0.00026 |  |  |  |  |  | ED50 (HT-29): > 100000 nM
2 | C=C(CN1C(=O)OC2CCC(C(C)(C)C)CC21)S(C)(=O)=O (stereo not given) | 1.3e-06 | 2.9e-05 | 1.1e-05 M l-1 | 2.7e-06 | 5000 | 4700 | 3100 | 2600 | 4400 | Toxic deaths [1]: 0; inhibition in vivo at 100 mg/kg (Mus musculus [3]): 0%; Ratio [4]: 1.7; Toxic deaths [5]: 1; Ratio [6]: 0.9; Ratio [7]: 1.4; inhibition in vivo at 33 mg/kg (Mus musculus [9]): 0%; Ratio [10]: 0.9
3 | C=C(CN(C)C1CC(C(C)(C)C)CCC1O)S(C)(=O)=O (stereo not given) | 5.6e-07 | 1.4e-05 | 4.8e-07 M l-1 | 1.7e-07 |  |  |  |  |  | 
4 | C=C(CNC1CC(C(C)(C)C)CCC1O)S(C)(=O)=O (stereo not given) | 1.9e-07 | 6.7e-07 | 6e-07 M l-1 | 4.7e-07 |  |  |  |  |  | 
5 | C=C(CN1COC2CCC(C(C)(C)C)CC21)S(C)(=O)=O (stereo not given) | 9.6e-07 | 1.2e-06 | 1e-06 M l-1 | 2.4e-07 | 1800 | 2100 | 500 | 500 | 1400 | inhibition in vivo at 3 mg/kg (Mus musculus [14]): 0%; Ratio [6]: 0.6; inhibition in vivo at 10 mg/kg (Mus musculus [15]): 0%; Toxic deaths [16]: 0; Ratio [10]: 0.8; Toxic deaths [17]: 0
6 | C=C(CN(CC(=C)S(C)(=O)=O)C1CC(C(C)(C)C)CCC1O)S(C)(=O)=O (stereo not given) | 4.6e-07 | 1.3e-06 | 4.2e-06 M l-1 | 3.3e-07 | 1400 | 2500 | 800 | 600 | 2400 | Toxic deaths [1]: 0; Toxic deaths [18]: 0; selectivity ratio [19]: 1; inhibition in vivo at 11 mg/kg (Mus musculus [20]): 0%; inhibition in vivo at 33 mg/kg (Mus musculus [9]): 0%; selectivity ratio [21]: 0.6
7 | C=C(CCl)S(C)(=O)=O | 3.2e-06 | 1.9e-05 | 6.5e-06 M l-1 | 6.5e-06 |  |  |  |  |  | ED50 (HT-29): 2.2e-06 M l-1
